Test [1] has as its system Ube3am-/p+ (AS) mice. Put plainly: Audiogenic seizure susceptibility in Angelman syndrome model. It is filed as in vivo, mouse. The procedure:
Heterozygous mice with maternal deficiency of Ube3A (Ube3am−/p+) and wild type (Ube3am+/p+) were purchased from The Jackson Laboratory (Jackson code: B6.129S7-Ube3a tm1Alb/J) and maintained in a C57BL/6 background.
For the audiogenic seizure tests CBDV was administered at 20, 200 and 400 mg/kg.
Seizure susceptibility: Audiogenic seizures were induced by vigorously scraping scissors across the metal grating of the cage lid which produces a 100 DB high frequency loud noise. This was done for 20 seconds. This test consists of 3 phases. In phase 1 all mice were tested for epilepsy. In phase 2 all mice were injected daily with either vehicle or a drug for 7 or 10 days. In phase 3 mice were tested for epilepsy (one hour after last injection).

For test [2], the system named is PCP-treated rats. Put plainly: Novel object recognition test, sub-chronic PCP model of schizophrenia. It is filed as in vivo, rat. The procedure: Female hooded-Lister rats were used for this experiment. Rats were housed in groups of 5 under standard laboratory conditions under a 12 hr light: dark cycle, lights on at 0700 hr. Testing was carried out in the light phase.
Rats were randomly assigned to two treatment groups and treated with vehicle, n=20 (distilled water, i.p.) or Phencyclidine hydrochloride (PCP), n=100 (2 mg/kg, i.p. twice daily for 7-days). PCP was dissolved in distilled water. This was followed by a 7-day wash out period before the rats were tested following acute treatment with CBDV, risperidone or vehicle.
Risperidone (0.1 mg/kg) was dissolved in a minimum volume of acetic acid, made up to volume with distilled water and pH adjusted to 6 with 0.1M NaOH and administered via the i.p. route in a volume of 1 ml/kg, 60 min prior to testing.
CBDV at 2, 10 or 20 mg/kg was dissolved in 2:1:17 (Ethanol:Cremofor:Saline 0.9%) and administered via the i.p. route in a volume of 5 ml/kg, 60 min prior to testing.
Rats were allowed to habituate to the empty test box and the behavioural test room environment for 1h on day 1. Prior to behavioural testing on day 2 rats are given a further 3 min habituation.
Following the 3 min habituation period, the rats are given two 3 min trials (T1 and T2) which are separated by a 1 min inter-trial interval in the home cage during which the objects are changed. Behaviour in all trials was recorded on video for subsequent blind scoring.
In this trial, the animals are allowed to explore two identical objects (A1 and A2) for 3 min.
In this trial, the animals explore a familiar object (A) from T1 and a novel object (B) for 3 min. The familiar object presented during T2 is a duplicate of the object presented in T1 in order to avoid any olfactory trails.
The object exploration is defined by animals licking, sniffing or touching the object with the forepaws whilst sniffing, but not leaning against, turning around, standing or sitting on the object. The exploration time (s) of each object (A, B, familiar and novel) in each trial are recorded using two stopwatches and the following factors are calculated:
Discrimination index (DI), which is calculated as shown below: […]

In test [3] the test system is MeCP2 KO mice. Put plainly: Novel Object Recognition test, short- and long-term memory, Rett syndrome model. It is filed as in vivo, mouse. On the procedure:
Furthermore, the efficacy of CBDV in reverting/attenuating the short- and long-term memory deficits present in these mice was evaluated. The Novel Object Recognition (NOR) test was performed before the starting of the treatment Post Natal Day 28 (PND 28), at PND 41 when the first motor symptoms appear and at PND 56 and 66 when the disease is fully manifested.
At PND 28, 41, 56 and 66 the effect of CBDV on short- and long-term memory deficits was investigated through the Novel Object Recognition (NOR) test.
The experimental apparatus used for the Novel Object Recognition test was an open-field box (43×43×32 cm) made of Plexiglas, placed in a dimly illuminated room. Animals performed each test individually.
Briefly, each animal was placed in the arena and allowed to explore two identical previously unseen objects for 10 minutes (familiarization phase). After an inter-trial interval of 30 minutes and 24 hours one of the two familiar objects was replaced by a novel, previously unseen object and mice were returned to the arena for the 10-minute test phase.
During the test phase the time spent exploring the familiar object (Ef) and the new object (En) was recorded separately by two observers blind to the groups and the discrimination index was calculated as follows: [(En−Ef)/(En+Ef)]×100.

Test [4] has as its system VPA-exposed rats. Put plainly: Sociability and preference for social novelty, 3-chamber apparatus, prenatal VPA model. It is filed as in vivo, rat. On the procedure: Pregnant Sprague-Dawley rats (Charles River, Calco, Italy), received a single intraperitoneal injection of 500 mg/kg sodium valproate on the 12.5 day after conception, and control females were injected with physiological saline at the same time. Sodium valproate (Sigma Aldrich, Milan, IT) was dissolved in saline at a concentration of 250 mg/ml.
CBDV was dissolved in ethanol, cremophor and saline (1:1:18). Symptomatic treatment with CBDV at doses of 0.2, 2, 20, and 100 mg/kg/day i.p. was performed starting from PND 34 (early adolescence) till 56 (early adulthood), both in male and female offspring of dams injected with VPA 500 mg/kg (or vehicle) on day 12.5 after conception. At PND 56, a series of behavioural tests was performed in order to assess the effect of chronic CBDV on sociability, social novelty, short-term memory, locomotion and stereotyped/repetitive behaviours.
Sociability and preference for social novelty: These behaviours were investigated in a 3-chamber apparatus which allows for the measurement of social approach and social preference. In brief, animals were placed into a novel arena (80 cm×31.5 cm) composed of three communicating chambers separated by Perspex walls with central openings allowing access to all chambers for 5 min.
Following this acclimatisation period, animals were briefly confined to the central chamber while an unfamiliar rat confined in a small wire cage was placed in one of the outer chambers. An identical empty wire cage was placed in the other chamber. The unfamiliar rat was randomly assigned to either the right or left chamber of the arena. The test animal was then allowed to explore the arena/chambers for a further 5 min. Time spent engaging in investigatory behaviour with the rat was evaluated with the aid of Anymaze program (Ugo Basile, Italy) in order to examine social approach.
To investigate the preference for social novelty, a novel unfamiliar rat was then placed in the empty cage and the test animal was then allowed to explore the arena/chambers for a further 5 min. Time spent engaging in investigatory behaviour with the novel unfamiliar rat was evaluated with the aid of Anymaze program (Ugo Basile, Italy) in order to examine preference for social novelty.

In test [5] the test system is animal models of seizure. The following applies: in vivo; cited from earlier work.

Consider `C=C(C)[C@@H]1CCC(C)=C[C@H]1c1c(O)cc(CCC)cc1O` [CBDV, Cannabidivarin], for which the “seizure susceptibility, number of mice with seizures vs baseline (FIG. 15)” value in test [1] (20 mg/kg or 200 mg/kg, 7 or 10 days treatment) is “no effect”. Further, the “number of mice with seizures (FIG. 15)” value in test [1] (400 mg/kg) is given as “statistically significant decrease”. For the same molecule, in test [2] (10 and 20 mg/kg, PCP rats), the “discrimination index (DI) (FIG. 17)” value is “statistically significant increase in the DI”. For the same molecule, the “time spent investigating two identical objects in Trial 1 (FIG. 16A)” value in test [2] (CBDV 2, 10 or 20 mg/kg i.p. 60 min prior to testing) is “no real preference”. Also, in test [2] (CBDV 10 and 20 mg/kg i.p., PCP treated rats), the “discrimination between familiar and novel objects, Trial 2 (FIG. 16B)” value was “reverse the cognitive dysfunction”. In addition, in test [3] (2, 20 and 200 mg/kg, 24 hours inter-trial interval, KO mice), the “long-term memory in the NOR test (FIG. 10)” value is “significantly counteract the cognitive impairment”. The “short-term memory in the NOR test (FIG. 9)” value in test [3] (2, 20 and 200 mg/kg, each time point (PND 41, 56, 66), 30 min inter-trial interval, KO mice) is “significantly reverted the cognitive impairment”. For the same molecule, in test [3] (WT littermates), the “long-term recognition memory in the NOR test (FIG. 10)” value is recorded as “without affecting recognition memory” and the “short-term recognition memory in the NOR test (FIG. 9)” value is “without affecting recognition memory”. The “restoration of social novelty preference (FIG. 1A)” value in test [4] (CBDV 20 mg/kg/day i.p. PND 34-56, VPA offspring, p<0.001 in males, p<0.01 in females) is “statistically significant effect”. In test [4] (VPA-CBDV animals, VPA alone about 48%), the “reduction of preference index compared to controls” value is on record as “about 13%”. For the same molecule, the “impairment in sociability (FIG. 1B)” value in test [4] (all doses (0.2, 2, 20, 100 mg/kg/day i.p.), VPA rats) is “significantly reduced the impairment in sociability”. Also, the “deficit in social preference (FIG. 1C), time exploring novel vs familiar rat” value in test [4] (doses of 20 mg/kg and 100 mg/kg, VPA rats) is “reversed the deficit in social preference”. Also, the “efficacy in animal models of seizure” value in test [5] is “effective”.

The record behind these values is US11752111B2, “Use of cannabidivarin in the treatment of autism spectrum disorder, associated disorders and schizophrenia” (GW Research Limited, priority 2016, dated 2023).
